In brackets after ≈: the same amount, converted by molar mass. Entries after “also recorded” stand apart in the source; their conditions may differ. Like-named read-outs stand apart in the source and are kept apart here.
Columns and labels:
[1] = tested on: Leukemia L-1210 cells; assay: Antitumor activity against leukemia L-1210 in CDF1 mice, 60-day observation (Test Example 1); type: in vivo, mouse; conditions: for % Increase in life-span (T/C, %): 9 days, 60 d observation, '>' = at least one of four mice survived 60 days; for development of toxicity (in words): 2.5 to 5 mg/kg/day for daunomycin, adriamycin, 0.3 to 1.25 mg/kg/day for Compound (b), low dosages for formula (I)
Method: Thus, to evaluate the antitumor effects of the new compounds of this invention against experimental tumors in animals, CDF1 mice (four mice per group) were intraperitoneally transplanted with cells of Leukemia L-1210 at an amount of 1×10^5 cells/mouse. Since an elapsed time of 24 hours from the transplantation of the leukemia cells, a test compound according to this invention was administered intraperitoneally to the mice under test for 9 consecutive days once per day. […] While, mice of the control group (the untreated group) were administered with only physiological saline after the transplantation of the L-1210 cells. During the observation period, the numbers of the surviving mice in the treated group and in the control group were counted, and the mean survival days of mice in the treated group and in the control group were then calculated. From the mean survival day (C) of the untreated mice of the control group and the mean survival day (T) of the treated mice of the treated group, there were evaluated percentages (%) of the increase in the life-span of the treated mice, as T/C %. For a comparison purpose, 7-O-(2,6-dideoxy-2-fluoro-α-L-talopyranosyl)daunomycinone (abbreviation: FT-DM); 7-O-(2,6-dideoxy-2-fluoro-α-L-talopyranosyl)adriamycinone (abbreviation: FT-ADM); daunomycin and adriamycin were also tested in the same manner as above. Incidentally, the mean survival day of mice of the control group (the untreated group) was amounting to 8 to 9 days, and the mean survival day of mice of the comparative groups having received the administration of adriamycin was varying dependently on the dosage of adriamycin.

[2] = tested on: P388 cells; assay: In vitro inhibition of growth of P388 cells, 72 hours (Test Example 3); type: cell-based, mouse; conditions: for IC50: Mus musculus; for antitumor activity against P388 cell (in words): compared with other compounds
Method: (§1) Furthermore, in order to estimate the antitumor activities of Compound (a) and Compound (b) of this invention represented by the general formula (I), as well as the adriamycinone derivative represented by the formula (II) (namely, Compound (c) of this invention), some "in vitro" tests for inhibiting proliferation of cancer cells were conducted as shown below.
(§2) The above-mentioned Compound (a), Compound (b) or Compound (c) according to this invention were added at varying concentrations to mouse leukemia, P388 cells or adriamycin-resistant P388 cells (P388/ADR) which had been incubated in test tubes containing an appropriate culture medium. The incubation of the tumor cells were then continued for 72 hours from the addition of the test compound, and determination was made to evaluate such concentrations of the test compound which could inhibit the growth of the leukemia cells by 50% (namely, IC50' ng/ml). FT-DM, FT-ADM and adriamycin (as the hydrochloride) were used as comparative compounds and were tested in the same manner as above.

[3] = tested on: adriamycin-resistant P388 cells (P388/ADR); assay: In vitro inhibition of growth of adriamycin-resistant P388 cells, 72 hours (Test Example 3); type: cell-based, mouse; conditions: for IC50: Mus musculus, P388/ADR, 72 hours; for growth inhibition of P388/ADR cell (in words): compared with adriamycin, FT-DM, FT-ADM
Method: as §1, §2

[4] = tested on: Leukemia L-1210 cells; assay: Antitumor activity against leukemia L-1210 in CDF1 mice, 30-day observation (Test Example 2); type: in vivo, mouse; conditions: for mice surviving 30 days / mice tested / % Increase in life-span (T/C, %): 9 days; for % Increase in life-span (T/C, %): 30 d observation, '>' = at least one of four mice survived 30 days
Method: Since an elapsed time of 24 hours from the transplantation of the leukemia cells, Compound (c) of this invention was administered intraperitoneally to the mice under test for 9 consecutive days once per day. […] While, mice of the control group (the untreated group) were administered with only physiological saline after the transplantation of the L-1210 cells. During the observation period, the numbers of the surviving mice in the treated group and the control group were counted, and the mean survival days of mice in the treated group and in the control group were then calculated. From the mean survival day (C) of the untreated mice of the control group and the mean survival day (T) of the treated mice of the treated group, there were evaluated percentages (%) of the increase in the life-span of the treated mice as T/C %. For a comparison purpose, adriamycin was also tested in the same manner as above.

[5] = human, in vivo; cited from earlier work
[6] = 0.3 mg/kg/day to 1.25 mg/kg/day, about 300% or more

Structure (SMILES)	antitumor activity in vivo (in words) [1]	% Increase in life-span (T/C, %) ([1]; 0.15 mg/kg/day i.p.)	% Increase in life-span (T/C, %) ([1]; 0.3 mg/kg/day i.p.)	% Increase in life-span (T/C, %) ([1]; 0.6 mg/kg/day i.p.)	% Increase in life-span (T/C, %) ([1]; 1.25 mg/kg/day i.p.)	% Increase in life-span (T/C, %) ([1]; 2.5 mg/kg/day i.p.)	% Increase in life-span (T/C, %) ([1]; 5 mg/kg/day i.p.)	IC50 [3]	growth inhibition of P388/ADR cell (in words) [3]	development of toxicity (in words) [1]	IC50 ([2]; P388, 72 hours, read-out: IC50)	antitumor activity against P388 cell (in words) [2]	other results
COc1cccc2c1C(=O)c1c(O)c3c(c(O)c1C2=O)C[C@@](O)(C(C)=O)C[C@@H]3O[C@@H]1O[C@@H](C(F)(F)F)[C@@H](O)[C@@H](O)[C@H]1F [Compound (a), 7-O-(2,6-dideoxy-2,6,6,6-tetrafluoro-α-L-talopyranosyl)daunomycinone]	much higher therapeutic effects against the L-1210 leukemia than daunomycin; also recorded: at low dosages of 0.6 to 1.25 mg/kg exhibited much higher therapeutic effects than FT-DM	106%	119%	132%	294%	210%	158%	0.028 µg/mL (≈ 0.0466 µM)	can inhibit the growth of P388/ADR cell at the remarkedly lower concentrations than adriamycin; also recorded: at the substantially same concentrations as or at the lower concentrations than FT-DM and FT-ADM				IC50 ([2]; P388, 72 h): < 0.0098 µg/mL
COc1cccc2c1C(=O)c1c(O)c3c(c(O)c1C2=O)C[C@@](O)(C(=O)CO)C[C@@H]3O[C@@H]1O[C@@H](C(F)(F)F)[C@@H](O)[C@@H](O)[C@H]1F [Compound (b), 7-O-(2,6-dideoxy-2,6,6,6-tetrafluoro-α-L-talopyranosyl)adriamycinone]	remarkedly higher antitumor effects in mice than FT-ADM; also recorded: extraordinarily higher anticancer or antitumor activities than those of adriamycin; also recorded: enhanced anticancer or antitumor activities over the whole range of low dosages of from 0.15 to 1.25 mg/kg of Compound (b), as compared with the comparative drug, FT-ADM	144%	> 407%	> 459%	> 348%	233%	128%	0.043 µg/mL (≈ 0.0698 µM)	can inhibit the growth of P388/ADR cell at the remarkedly lower concentrations than adriamycin; also recorded: at the substantially same concentrations as or at the lower concentrations than FT-DM and FT-ADM	not accompanied by development of toxicity	< 0.0098 µg/mL	to a substantially same degree as that of FT-ADM	percentages of increase in the life-span [1, 6]: ≥ 300%; survival for 60 days / cure (in words) ([1]; 0.3 to 1.25 mg/kg): some cases of the complete curing of the L-1210 cell-inoculated mice; also recorded: the mouse which could survive for 60 days (namely, the mouse as fully cured from the leukemia) can be observed
COc1cccc2c1C(=O)c1c(O)c3c(c(O)c1C2=O)C[C@@](O)(C(=O)CO)C[C@@H]3O[C@H]1C[C@H](O)[C@H](O)[C@H](C(F)(F)F)O1 [Compound (c), 7-O-(2,6-dideoxy-6,6,6-trifluoro-α-L-lyxo-hexopyranosyl)adriamycinone]								0.17 µg/mL (≈ 0.284 µM)	higher antitumor activities than adriamycin		< 0.0098 µg/mL	to a substantially same degree as that of Compound (b)	mice surviving 30 days / mice tested ([4]; 0.15 mg/kg/day i.p.): 3/4; % Increase in life-span (T/C, %) ([4]; 0.15 mg/kg/day i.p.): > 335%; mice surviving 30 days / mice tested ([4]; 0.3 mg/kg/day i.p.): 3/4; % Increase in life-span (T/C, %) ([4]; 0.3 mg/kg/day i.p.): > 329%; percentages of increase in the life-span [4, 6]: ≥ 300%; mice surviving 30 days / mice tested ([4]; 0.6 mg/kg/day i.p.): 2/4; % Increase in life-span (T/C, %) ([4]; 0.6 mg/kg/day i.p.): > 283%; % Increase in life-span (T/C, %) ([4]; 1.25 mg/kg/day i.p.): 203%; % Increase in life-span (T/C, %) ([4]; 2.5 mg/kg/day i.p.): 194%; % Increase in life-span (T/C, %) ([4]; 5 mg/kg/day i.p.): 135%; complete curing (in words) ([4]; 0.3 to 1.25 mg/kg/day): some cases of the complete curing of the L-1210 cell-inoculated mice; development of toxicity (in words) ([4]; 0.3 to 1.25 mg/kg/day, low dosages): not accompanied by development of toxicity; antitumor activity in vivo (in words) ([4]; 0.6 to 0.15 mg/kg): very much higher anticancer or antitumor activities than those of adriamycin; mice which could survive for 30 days ([4]; amongst totally 12 test mice, 0.6 to 0.15 mg/kg): 8 mice; concentration inhibiting growth of P388/ADR (IC50) relative to that of adriamycin ([3]; 1/3-folds lower than that of adriamycin): 1/3
COc1cccc2c1C(=O)c1c(O)c3c(c(O)c1C2=O)C[C@@](O)(C(C)=O)C[C@@H]3O[C@H]1C[C@H](N)[C@H](O)[C@H](C)O1 [Daunomycin, daunomycin]		132%	112%	145%	158%	171%	138%			accompanied by development of toxicity			serious side-effects (in words) [5]: serious side-effects such as leukocytopenia, alopecia, myocardiopathy and others
COc1cccc2c1C(=O)c1c(O)c3c(c(O)c1C2=O)C[C@@](O)(C(=O)CO)C[C@@H]3O[C@@H]1O[C@@H](C)[C@@H](O)[C@@H](O)[C@H]1F [FT-ADM, 7-O-(2,6-dideoxy-2-fluoro-α-L-talopyranosyl)adriamycinone]		127%	182%	185%	275%	> 352%	> 740%	0.0928 µg/mL (≈ 0.165 µM)			0.0034 µg/mL (≈ 0.00604 µM)		
COc1cccc2c1C(=O)c1c(O)c3c(c(O)c1C2=O)C[C@@](O)(C(C)=O)C[C@@H]3O[C@@H]1O[C@@H](C)[C@@H](O)[C@@H](O)[C@H]1F [FT-DM, 7-O-(2,6-dideoxy-2-fluoro-α-L-talopyranosyl)daunomycinone]		105%	105%	125%	171%	217%	184%	0.15 µg/mL (≈ 0.274 µM)			0.033 µg/mL (≈ 0.0604 µM)		

Source: patent US5719130A, “Anthracycline derivative having a trifluoromethylated sugar” (Zaidan Hojin Biseibutsu Kagaku Kenkyu Kai, priority 1994, dated 1998)
